Measurements reported in ChEMBL document CHEMBL6177973, “A Novel Compound 3a-M1, from Metabolites of Sinomenine Derivative 3a, Exerts Potent Anti-Aplastic Anemia Activity via IP3R/ORAI-Mediated CTL Ferroptosis” (J Med Chem, 2025).
The source made the active and inactive calls. The calls are words filed in the database; no cut-off is given here.

Assays:
[1] = Stability in mouse spleen assessed as compound remaining at 50 mg/kg, po measured for 0.083 to 8 hrs by HPLC analysis; type: ADME, organism-based; conditions: in vivo, time 0.083-8 hrs
[2] = Drug metabolism in rat plasma assessed as double hydrolyzation-mediated metabolite formation at 50 mg/kg, po measured for 24 hrs by HRMS analysis; type: ADME, organism-based; conditions: in vivo
[3] = Drug metabolism in mouse thymus assessed as (4bR,9S)-1-(hydroxymethyl)-3,7-dimethoxy-11-methyl-6-oxo-6,8a,9,10-tetrahydro-5H-9,4b-(epiminoethano)phenanthren-4-yl cinnamate metabolite formation at 50 mg/kg, po measured for 0.083 to 8 hrs by HPLC analysis; type: ADME, organism-based; conditions: in vivo, time 0.083-8 hrs
[4] = Drug metabolism in mouse blood assessed as (4bR,9S)-1-(hydroxymethyl)-3,7-dimethoxy-11-methyl-6-oxo-6,8a,9,10-tetrahydro-5H-9,4b-(epiminoethano)phenanthren-4-yl cinnamate metabolite formation at 50 mg/kg, po measured for 0.083 to 8 hrs by HPLC analysis; type: ADME, organism-based; conditions: in vivo, time 0.083-8 hrs
[5] = Drug metabolism in rat plasma assessed as double hydrolyzation/hydroxylation-mediated metabolite formation at 50 mg/kg, po measured for 24 hrs by HRMS analysis; type: ADME, organism-based; conditions: in vivo
[6] = Drug metabolism in rat plasma assessed as (4bR,9S)-1-(hydroxymethyl)-3,7-dimethoxy-11-methyl-6-oxo-6,8a,9,10-tetrahydro-5H-9,4b-(epiminoethano)phenanthren-4-yl cinnamate metabolite formation at 50 mg/kg, po measured for 24 hrs by HRMS analysis; type: ADME, organism-based; conditions: in vivo
[7] = Stability in mouse thymus assessed as compound remaining at 50 mg/kg, po measured for 0.083 to 8 hrs by HPLC analysis; type: ADME, organism-based; conditions: in vivo, time 0.083-8 hrs
[8] = Drug metabolism in mouse kidney assessed as (4bR,9S)-1-(hydroxymethyl)-3,7-dimethoxy-11-methyl-6-oxo-6,8a,9,10-tetrahydro-5H-9,4b-(epiminoethano)phenanthren-4-yl cinnamate metabolite formation at 50 mg/kg, po measured for 0.083 to 8 hrs by HPLC analysis; type: ADME, organism-based; conditions: in vivo, time 0.083-8 hrs
[9] = tested on: Mus musculus; test: Anti-aplastic anemia activity in C57BL/6J mouse model of immune-mediated bone marrow failure assessed as reduction in IFN-gamma level at 5 to 15 mg/kg, IG qd treated for 12 days by ELISA; type: functional, organism-based; conditions: dose 5-15 mg/kg, time 12.0 day
[10] = tested on: Mus musculus; test: Anti-aplastic anemia activity in C57BL/6J mouse model of immune-mediated bone marrow failure assessed as CD4+ T cells at 5 mg/kg, IG qd treated for 12 days by flow cytometry (reference value: 12.93 %); type: functional; conditions: time 12 day
[11] = tested on: Mus musculus; test: Anti-aplastic anemia activity in C57BL/6J mouse model of immune-mediated bone marrow failure assessed as increase in dietary intake at 5 to 15 mg/kg, IG qd treated for 21 days; type: functional, organism-based; conditions: dose 5-15 mg/kg, time 21.0 day
[12] = tested on: RAW264.7; test: Cytotoxicity against mouse RAW264.7 cells assessed as inhibition of cell viability incubated for 72 hrs by CCK8 assay; type: functional, cell-based; conditions: RAW264.7, 72 h
[13] = tested on: IEC-6; test: Cytotoxicity against rat IEC-6 cells assessed as inhibition of cell viability incubated for 72 hrs by CCK8 assay; type: functional, cell-based; conditions: IEC-6, 72 h
[14] = tested on: Mus musculus; test: Anti-aplastic anemia activity in C57BL/6J mouse model of immune-mediated bone marrow failure assessed as CD8+ T cells at 10 mg/kg, IG qd treated for 12 days by flow cytometry (reference value: 72.15 %); type: functional; conditions: time 12 day
[15] = tested on: CTLL-2; test: Cytotoxicity against mouse CTLL-2 cells assessed as inhibition of cell viability incubated for 72 hrs by CCK8 assay; type: functional, cell-based; conditions: CTLL-2, 72 h, read-out: IC50
[16] = tested on: CTLL-2; test: Induction of ferroptosis in mouse CTLL-2 cells assessed as increase in ROS level at 10 uM incubated for 45 mins in presence of 2-APB; type: functional, cell-based
[17] = tested on: THP-1; test: Cytotoxicity against human THP-1 cells assessed as inhibition of cell viability incubated for 72 hrs by CCK8 assay; type: functional, cell-based; conditions: THP-1, 72 h
[18] = tested on: CTLL-2; test: Induction of ferroptosis in IL-2-stimulated mouse CTLL-2 cells assessed as increase in p-p38 level at 30 uM incubated for 6 hrs followed by Fer-1 addition measured after 10 hrs by Western blot analysis; type: functional, cell-based; conditions: time 16.0 hrs
[19] = AUC in Sprague-Dawley rat at 50 mg/kg, po measured for 0.083 to 24 hrs by HPLC analysis; type: ADME, organism-based; conditions: in vivo, time 0.083-24 hrs
[20] = tested on: HepG2; test: Induction of ferroptosis in human HepG2 cells assessed as increase in intracellular Ca2+ concentration at 10 uM by Fluo-4 AM dye based analysis; type: functional, cell-based
[21] = tested on: Mus musculus; test: Anti-aplastic anemia activity in C57BL/6J mouse model of immune-mediated bone marrow failure assessed as increase in memory CD8+ T cells at 5 to 15 mg/kg, IG qd treated for 12 days by flow cytometry; type: functional, organism-based; conditions: dose 5-15 mg/kg, time 12.0 day
[22] = tested on: CTLL-2; test: Induction of ferroptosis in mouse CTLL-2 cells assessed as increase in mitochondrial superoxide level incubated for 16 hrs by MitoSOX Red staining based fluorescent microscopy; type: functional, cell-based; conditions: dose 7.5-30 µM
[23] = tested on: CTLL-2; test: Induction of ferroptosis in IL-2-stimulated mouse CTLL-2 cells assessed as increase in intracellular lipid peroxidation level at 30 uM incubated for 6 hrs followed by Fer-1 addition measured after 10 hrs by flow cytometry; type: functional, cell-based; conditions: time 16.0 hrs
[24] = tested on: NRK-52E; test: Cytotoxicity against rat NRK-52E cells assessed as inhibition of cell viability incubated for 72 hrs by CCK8 assay; type: functional, cell-based
[25] = tested on: CTLL-2; test: Induction of ferroptosis in mouse CTLL-2 cells assessed as increase in intracellular Ca2+ concentration in presence of 2-APB/CM4620 by Fluo-4 AM dye based analysis; type: functional, cell-based
[26] = tested on: Mus musculus; test: Anti-aplastic anemia activity in BALB/c mouse model of immune-mediated bone marrow failure assessed as decrease in abnormal proportion of lymphocytes in bone marrow at 10 mg/kg, po treated for 14 days by H and E staining based analysis; type: functional, organism-based; conditions: time 14.0 day
[27] = tested on: CD8-positive T cell; test: Inhibition of CD3/CD28-activated CD8-positive T cell activation in BALB/c mouse lymph nodes assessed as decrease in TNF-alpha level at 1 to 10 uM incubated for 72 hrs by ELISA; type: functional, tissue-based; conditions: Lymph node, dose 1-10 µM
[28] = Acute toxicity in 12 hr-fasted KM mouse assessed as abnormalities in animal at 10 g/kg, po administered as single dose measured for 14 days; type: organism-based; conditions: in vivo, 10000 mg/kg, 336 h, time 14 day
[29] = tested on: NRK-52E; test: Induction of ferroptosis in rat NRK-52E cells assessed as increase in intracellular Ca2+ concentration at 10 uM by Fluo-4 AM dye based analysis; type: functional, cell-based
[30] = tested on: CD8-positive T cell; test: Inhibition of CD3/CD28-activated CD8-positive T cell activation in BALB/c mouse lymph nodes assessed as decrease in IFN-gamma level at 1 to 10 uM incubated for 72 hrs by ELISA; type: functional, tissue-based; conditions: Lymph node, dose 1-10 µM
[31] = Induction of ferroptosis in mouse CTLL-2 cells assessed as increase in intracellular Ca2+ concentration incubated for 45 mins by Fluo-4 AM dye based analysis; type: functional, cell-based; conditions: CTLL-2, 0.75 h
[32] = tested on: CD8-positive T cell; test: Inhibition of CD3/CD28-activated CD8-positive T cell activation in BALB/c mouse lymph nodes assessed as decrease in lactate production at 1 to 10 uM incubated for 72 hrs; type: functional, tissue-based; conditions: Lymph node, dose 1-10 µM

**Q.** Which Stability [1] does the source give for `COC1=C[C@@H]2[C@@H]3Cc4c(COC(=O)/C=C/c5ccccc5)cc(OC)c(OC(=O)/C=C/c5ccccc5)c4[C@]2(CCN3C)CC1=O` here?
**A.** Unstable

**Q.** And the Drug metabolism [2]?
**A.** metabolite_detected

**Q.** What about the Drug metabolism [3] of the same compound?
**A.** metabolite_detected

**Q.** What about the Drug metabolism [4] of the same compound?
**A.** metabolite_detected

**Q.** And the Drug metabolism [5]?
**A.** metabolite_detected

**Q.** What about the Drug metabolism [6] of the same compound?
**A.** metabolite_detected

**Q.** And the Stability [7]?
**A.** Unstable

**Q.** What about the Drug metabolism [8] of the same compound?
**A.** metabolite_detected

**Q.** For `COC1=C[C@@H]2[C@@H]3Cc4c(CO)cc(OC)c(OC(=O)/C=C/c5ccccc5)c4[C@]2(CCN3C)CC1=O`, which Activity [9] is on record?
**A.** Active

**Q.** What about the Activity [10] of the same compound?
**A.** 11.38%

**Q.** And the Activity [11]?
**A.** Active

**Q.** What about the IC50 [12] of the same compound?
**A.** 492 µM

**Q.** What about the IC50 [13] of the same compound?
**A.** 84.3 µM

**Q.** What about the Activity [14] of the same compound?
**A.** 38.55%

**Q.** What about the IC50 [15] of the same compound?
**A.** 37.9 µM

**Q.** What about the Activity [16] of the same compound?
**A.** inactive

**Q.** And the IC50 [17]?
**A.** 125 µM

**Q.** And the Activity [18]?
**A.** inactive

**Q.** And the AUC [19]?
**A.** 15400 ng·h/mL

**Q.** And the Activity [20]?
**A.** Not active; Elevation Was Smaller Than In Mouse Ctll-2 Cells

**Q.** What about the Activity [21] of the same compound?
**A.** Active

**Q.** And the Activity [22]?
**A.** Dose-dependent-effect

**Q.** What about the Activity [23] of the same compound?
**A.** inactive

**Q.** What about the IC50 [24] of the same compound?
**A.** 705 µM

**Q.** And the Activity [25]?
**A.** inactive

**Q.** What about the Activity [26] of the same compound?
**A.** Active

**Q.** And the inhibition [27]?
**A.** Active

**Q.** What about the Activity [28] of the same compound?
**A.** Non-toxic

**Q.** And the Activity [29]?
**A.** Not active; Elevation Was Smaller Than In Mouse Ctll-2 Cells

**Q.** And the inhibition [30]?
**A.** Active

**Q.** And the EC50 [31]?
**A.** 10.1 µM

**Q.** And the inhibition [32]?
**A.** Active
